For experiment [1], the system named is day 9 metanephric mesenchyme spheroids (human iPSC-derived nephron progenitors). As to the kind of experiment: Nephron progenitor spheroid differentiation assay (SIX2 / LHX1 immunofluorescence). It counts as cell-based. The following applies: 48 hr; for LHX1+ early nephron cells in spheroids (marker positive pixel area as % of projection area): single agent in FGF9 basal media, 3 μM CHIR or 10 μM Y27632; for LHX1+ early nephron cells in spheroids, agent combined with CHIR: 3 μM CHIR plus 10 μM Y27632 or 30 μM blebbistatin. On the procedure:
We then decided to mimic the reduction in anisotropic stress that occurs over the tip life-cycle in vivo by adding the ROCK inhibitor Y-27632 or the non-muscle myosin II inhibitor blebbistatin to day 9 metanephric mesenchyme spheroids for 48 hr. These temporal parameters were optimized to capture early transitions of cells through the SIX2+ state and to accumulate differentiation events sparsely, enabling quantification. Spheroids were analyzed by immunofluorescence for SIX2 and the pre-tubular aggregate/renal vesicle (early nephron) marker LHX1 (FIG. 6E). […] These LHX1+ cells clustered and began to express the later medial nephron marker Jag1, indicating appropriate progression of differentiation after perturbation (FIG. 6D).
Nephron progenitor spheroid differentiation assays. Day 9 cap mesenchyme-stage nephron progenitors were lifted with Accutase and re-plated at 50,000 cells per well in 96-well ultra low attachment round-bottom plates (Corning 7007) in Advanced RPMI 1640 Medium, Glutamax, 1× Penn/Strep and 10 ng ml^−1 FGF9 (“basal media”) plus the specified perturbation conditions, which included 3 μM CHIR, 10 μM Y27632 (StemCell Technologies, 72304) from a 10 mM stock in DMSO, and/or 30 μM(S) (S)-(−)-blebbistatin (Tocris, 1852) from a 30 mM stock in DMSO. Cells were then aggregated by plate centrifugation at 300 g for 30 s. After 48 hr in culture, spheroids were collected and transferred to 1.7 mL tubes using a p200 pipette tip widened by cutting the tip to size with a razor blade. Excess media was removed and spheroids were fixed in ice-cold 4% paraformaldehyde in PBS for 15 min. Spheroids were then stained for immunofluorescence microscopy similar to kidneys (see Kidney immunofluorescence imaging.) via primary and secondary antibody incubation for 48 hr each at 4 C and washes in PBSTX totaling 6 hours. Primary antibodies and dilutions included mouse anti-Lhx1 (1:50, 4F2, Developmental Studies Hybridoma Bank, University of Iowa, RRID: AB_531784) and rabbit anti-Six2 (1:600, 11562-1-AP, Proteintech, RRID: AB_2189084). Spheroids were then incubated in 1 μg ml^−1 DAPI in PBS at 4 C for 1 hr before washing once in ice-cold PBS. Spheroids were transferred for imaging using a widened p200 pipette tip to a cover-slip bottom 24-well plate (Greiner 662892). Excess PBS was removed and spheroids were incubated with ˜20 μl of FocusClear (Cedarlane Labs, FC-101) for 20 min at room temperature prior to confocal imaging. Spheroids were imaged using 5 μm z-steps.
Quantification of spheroid cell differentiation. Maximum intensity projections of spheroids were generated and further processed in FIJI. DAPI signal was used to segment spheroids and calculate their areas in number of pixels. SIX2 and LHX1 signal was segmented using 50 pix rolling ball background subtraction and thresholding to remove background signal. The total numbers of SIX2+ and LHX1+ pixels were then divided by the total number of DAPI+ pixels to normalize positive pixels by spheroid area.

The subject of experiment [2] is day 9 iPSC-derived metanephric mesenchyme. Nature of the experiment: CHIR effect on day 9 iPSC-derived metanephric mesenchyme (substrate release and compaction). The format is cell-based, human. The following applies: day 9 cells, CHIR pulse; ascribed to collective cell contractility rather than motility. The source says: We next turned to a bottom-up approach using human iPSC-derived nephron progenitor organoids to assess the effects of mechanical microenvironment changes on nephron differentiation (FIG. 6B). When differentiated, these roughly mimic the progression in transcriptional states and marker expression profiles of mouse nephron progenitors in vivo, despite some species-specific differences (61-65). To test perturbations to cell collective tension during nephron progenitor commitment, we first differentiated PSCs through late primitive streak and posterior intermediate mesoderm (PIM) lineages to metanephric mesenchyme according to established protocols (66), confirming by qPCR (FIG. 10). We also validated that induced metanephric mesenchyme cells go on to form later nephron structures including ECAD+tubules containing GATA3+ distal nephron cells and Na^+/[…]/2Cl^− cotransporter SLC12A1+ loop of Henle cells after 21 days in culture (FIG. 6C). Day 9 induced metanephric mesenchyme cells were dissociated and plated into low-attachment round-bottom plates where they formed spheroids that we assayed for early nephrogenesis (FIG. 6D). In similar assays, a CHIR pulse is typically applied after re-aggregation of cells to mimic Wnt9b-driven β-catenin signaling during nephron progenitor commitment in vivo (61,62,67,68). […]

For experiment [3], the system named is Rho-associated protein kinase (ROCK). The following applies: cited from earlier work.

Take `Cc1c[nH]c(-c2cnc(NCCNc3ccc(C#N)cn3)nc2-c2ccc(Cl)cc2Cl)n1` [CHIR]: the “LHX1+ early nephron cells in spheroids (marker positive pixel area as % of projection area)” value in experiment [1] is listed as “increased differentiation to the LHX1+ state”. Moreover, the “Cell release from substrate and compaction” value in experiment [2] is “induced cell release from their substrate and compaction”.

As for `Cc1ccc2c(c1)C(=O)[C@]1(O)CCN(c3ccccc3)C1=N2` [blebbistatin, (S)-(−)-blebbistatin], the “LHX1+ early nephron cells in spheroids, agent combined with CHIR” value in experiment [1] is reported as “synergistic effect”.

As for `C[C@@H](N)[C@H]1CC[C@H](C(=O)Nc2ccncc2)CC1` [Y-27632], in experiment [1], the “LHX1+ early nephron cells in spheroids, agent combined with CHIR” value is on record as “synergistic effect” and the “LHX1+ early nephron cells in spheroids (marker positive pixel area as % of projection area)” value is recorded as “did not by itself induce LHX1+ cells”. The “SIX2+ nephron progenitors in spheroids (marker positive pixel area as % of projection area)” value in experiment [1] (10 μM Y27632 in FGF9 basal media, without CHIR) is “increased cell conversion to and/or self-renewal of SIX2+ progenitors”.

For the compound `Cc1cncc2cccc(S(=O)(=O)N3CCCNC[C@@H]3C)c12` [H1152], the “Nephron formation, high dose” value in experiment [3] (high dose H1152) was “decreases in nephron formation”. Also, the “Nephron formation, low dose” value in experiment [3] (low dose H1152) is listed as “increases in nephron formation”.

Values taken from patent US20250333708A1, “MANIPULATING NEPHRON DIFFERENTIATION RATE IN INDUCED HUMAN PLURIPOTENT STEM CELL ORGANOIDS AND TISSUES BY ENGINEERING MECHANICS OF THE MICROENVIRONMENT” (THE TRUSTEES OF THE UNIVERSITY OF PENNSYLVANIA, priority 2022, published 2025).
